Data on one substance can be found in article PMC12254338 (Scientific Reports, 2025).

No end group written: not given here.

The assay concerns the target T1, Vps4p^∆N (lacks the MIT domain and linker; residues 101–437) (Saccharomyces cerevisiae, UniProt P52917).
T1 sequence (P52917 101-437): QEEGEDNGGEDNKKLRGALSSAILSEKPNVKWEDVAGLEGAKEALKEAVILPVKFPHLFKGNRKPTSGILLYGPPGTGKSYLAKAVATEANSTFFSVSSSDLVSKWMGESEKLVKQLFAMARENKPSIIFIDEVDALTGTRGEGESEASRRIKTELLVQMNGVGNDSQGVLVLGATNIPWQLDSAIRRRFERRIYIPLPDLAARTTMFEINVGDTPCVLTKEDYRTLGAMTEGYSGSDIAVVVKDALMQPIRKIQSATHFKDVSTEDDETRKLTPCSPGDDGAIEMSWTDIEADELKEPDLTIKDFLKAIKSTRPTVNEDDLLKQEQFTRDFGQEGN
T1 sequence (Q06263 280-330 partner limits assumed): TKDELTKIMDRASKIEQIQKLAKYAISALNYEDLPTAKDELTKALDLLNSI
As to the kind of experiment: Fluorescence polarization peptide binding assay to Vps4p^∆N. Conditions: ratio of affinities. Details: species or system S. cerevisiae. A general note: Polarisation of emitted light reports the rotation of a fluorescent probe.

EKEKEKEK-NH2 [(EK)4]: the “Fold tighter binding than (KE)4” value came to 6 fold.
